Experimental findings from patent publication US20160122342A1, “ENHANCER OF ZESTE HOMOLOG 2 INHIBITORS” (GLAXOSMITHKLINE INTELLECTUAL PROPERTY (NO.2) LIMITED, priority 2013, published 2016) are described below.

Where two headings read alike, the source gives them in different places.

For data set [1] the following is noted: rcm bond.
The conditions of data set [2]: rcm bond, DCM.
The target in data set [3] is T1, EZH2 within the PRC2 complex (Homo sapiens, UniProt Q15910).
T1 construct: FLAG; made in house; host or cells: Sf9 cells
T1 sequence (Q15910 whole entry): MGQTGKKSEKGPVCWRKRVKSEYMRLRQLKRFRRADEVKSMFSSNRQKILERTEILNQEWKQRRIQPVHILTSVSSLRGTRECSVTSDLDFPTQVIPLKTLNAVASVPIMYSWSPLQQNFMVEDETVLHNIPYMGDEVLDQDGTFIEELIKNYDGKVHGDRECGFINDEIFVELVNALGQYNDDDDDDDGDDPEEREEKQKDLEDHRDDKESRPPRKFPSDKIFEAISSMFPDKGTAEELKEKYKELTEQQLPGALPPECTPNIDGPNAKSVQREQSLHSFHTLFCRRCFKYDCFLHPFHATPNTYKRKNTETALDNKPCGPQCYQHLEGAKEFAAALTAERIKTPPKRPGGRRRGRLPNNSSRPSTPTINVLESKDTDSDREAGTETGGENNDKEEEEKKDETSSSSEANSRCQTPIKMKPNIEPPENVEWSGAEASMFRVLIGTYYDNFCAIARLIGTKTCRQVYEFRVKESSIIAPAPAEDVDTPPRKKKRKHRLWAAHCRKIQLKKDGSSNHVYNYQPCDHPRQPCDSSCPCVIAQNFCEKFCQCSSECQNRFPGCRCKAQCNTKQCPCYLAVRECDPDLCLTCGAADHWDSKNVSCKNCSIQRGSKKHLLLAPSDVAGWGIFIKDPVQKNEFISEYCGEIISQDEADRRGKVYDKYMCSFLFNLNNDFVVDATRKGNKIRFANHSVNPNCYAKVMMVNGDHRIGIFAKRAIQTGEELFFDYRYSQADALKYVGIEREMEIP
T1 sequence (O75530 whole entry partner): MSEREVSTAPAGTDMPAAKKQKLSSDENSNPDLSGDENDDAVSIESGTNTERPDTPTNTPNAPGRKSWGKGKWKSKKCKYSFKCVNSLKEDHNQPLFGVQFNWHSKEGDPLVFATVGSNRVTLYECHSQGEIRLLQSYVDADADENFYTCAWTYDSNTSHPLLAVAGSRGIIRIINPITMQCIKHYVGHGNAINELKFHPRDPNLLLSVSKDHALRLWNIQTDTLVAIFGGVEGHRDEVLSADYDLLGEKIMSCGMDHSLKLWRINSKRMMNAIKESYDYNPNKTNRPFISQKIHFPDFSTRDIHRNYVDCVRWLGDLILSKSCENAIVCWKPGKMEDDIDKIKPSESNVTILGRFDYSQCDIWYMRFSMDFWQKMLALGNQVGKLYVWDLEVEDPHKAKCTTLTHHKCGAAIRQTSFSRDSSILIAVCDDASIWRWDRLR
T1 sequence (Q15022 whole entry partner): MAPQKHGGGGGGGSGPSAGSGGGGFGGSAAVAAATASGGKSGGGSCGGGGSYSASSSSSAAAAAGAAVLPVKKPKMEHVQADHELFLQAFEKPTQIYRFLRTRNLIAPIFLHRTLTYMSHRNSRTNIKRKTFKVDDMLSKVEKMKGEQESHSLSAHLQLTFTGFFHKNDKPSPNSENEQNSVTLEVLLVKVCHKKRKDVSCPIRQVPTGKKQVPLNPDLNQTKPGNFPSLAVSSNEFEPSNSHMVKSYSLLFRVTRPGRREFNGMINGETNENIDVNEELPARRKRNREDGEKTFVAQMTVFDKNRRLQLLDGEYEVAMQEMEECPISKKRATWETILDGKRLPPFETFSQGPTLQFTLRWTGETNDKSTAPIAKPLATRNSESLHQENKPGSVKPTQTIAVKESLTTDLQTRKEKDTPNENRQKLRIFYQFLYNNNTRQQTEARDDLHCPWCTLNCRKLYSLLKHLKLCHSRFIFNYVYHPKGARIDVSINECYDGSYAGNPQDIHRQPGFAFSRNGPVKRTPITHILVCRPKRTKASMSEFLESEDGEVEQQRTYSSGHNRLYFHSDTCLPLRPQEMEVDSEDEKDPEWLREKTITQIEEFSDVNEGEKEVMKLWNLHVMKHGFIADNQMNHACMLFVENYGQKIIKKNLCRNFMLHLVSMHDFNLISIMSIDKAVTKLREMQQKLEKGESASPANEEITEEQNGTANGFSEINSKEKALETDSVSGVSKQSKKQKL
T1 sequence (Q09028 whole entry partner): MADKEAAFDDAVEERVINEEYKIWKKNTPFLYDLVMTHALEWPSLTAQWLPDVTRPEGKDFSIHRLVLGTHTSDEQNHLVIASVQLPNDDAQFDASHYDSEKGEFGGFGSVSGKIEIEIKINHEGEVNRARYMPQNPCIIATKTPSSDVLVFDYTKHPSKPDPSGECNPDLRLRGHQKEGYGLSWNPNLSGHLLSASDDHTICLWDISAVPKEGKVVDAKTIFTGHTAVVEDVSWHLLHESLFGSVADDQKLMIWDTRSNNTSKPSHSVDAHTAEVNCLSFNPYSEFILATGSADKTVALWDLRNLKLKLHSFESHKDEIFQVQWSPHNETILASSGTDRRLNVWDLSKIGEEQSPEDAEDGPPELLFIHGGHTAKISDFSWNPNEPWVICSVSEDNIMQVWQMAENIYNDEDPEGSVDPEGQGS
T1 sequence (Q6ZN18 whole entry partner): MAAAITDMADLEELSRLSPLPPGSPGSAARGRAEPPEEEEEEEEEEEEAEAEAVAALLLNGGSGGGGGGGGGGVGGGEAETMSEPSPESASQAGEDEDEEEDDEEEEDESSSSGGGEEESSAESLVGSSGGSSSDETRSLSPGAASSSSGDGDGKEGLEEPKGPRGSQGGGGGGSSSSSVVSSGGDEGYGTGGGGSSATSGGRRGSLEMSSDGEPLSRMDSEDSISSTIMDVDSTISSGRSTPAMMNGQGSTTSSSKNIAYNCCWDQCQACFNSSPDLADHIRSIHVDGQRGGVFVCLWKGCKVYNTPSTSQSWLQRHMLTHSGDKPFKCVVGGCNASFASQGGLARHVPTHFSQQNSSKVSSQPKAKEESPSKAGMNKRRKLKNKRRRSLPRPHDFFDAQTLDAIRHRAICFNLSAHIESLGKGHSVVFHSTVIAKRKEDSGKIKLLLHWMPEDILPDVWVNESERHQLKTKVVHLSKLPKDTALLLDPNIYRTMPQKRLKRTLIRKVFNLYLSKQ
Nature of the data set: Assay Protocol 2: EZH2 methyltransferase scintillation proximity assay, biotinylated histone H3 peptide substrate. It is filed as biochemical. The conditions noted are these: SPA, 3H-SAM, biotinylated unmethylated histone H3K27 peptide substrate, 5-member PRC2 complex. The gist of the method: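 PRC2-complexed EZH2 was run in 50 mM Tris-HCl pH 8, 2 mM MgCl2, 4 mM DTT and 0.001% Tween-20. It was added to a 2× mix of 10 uM biotinylated H3K27 peptide, 0.15 uM 3H-SAM and 2.85 uM cold SAM with streptavidin SPA beads. After 60 min at room temperature and a cold-SAM quench, IC50 was fitted from percent inhibition versus DMSO.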

Data set [4] addresses T1, EZH2 within the PRC2 complex. Nature of the data set: Assay Protocol 1: EZH2 methyltransferase scintillation proximity assay, mononucleosome substrate. It is filed as biochemical. The conditions noted are these: Assay Protocol 1; SPA, 3H-SAM, Histone H3 of mononucleosome purified from HeLa cells; 5-member PRC2 complex; read-out: EZH2 IC50. For orientation: SPA uses beads or plates that emit light when radiolabelled molecules are held near them.

Setting [5] is: from C=CCCc1cc(C)nc(OC)c1CNC(=O)c1cccc(N(CC)C2CCOCC2)c1CC=C, 12-membered ring, Grubbs II (2 x 20 mol%), DCM, 25.3 mM, 25.0 °C, 36.0 h.
Where [6] appears, read: from C=CCCc1cc(C)nc(OC)c1CNC(=O)c1ccnc(Cl)c1CC=C, 12-membered ring, Grubbs II (10 mol%), DCM, 10.6 mM, 16.0 h.

As to `CCN(c1cccc2c1C/C=C/CCc1cc(C)nc(OC)c1CNC2=O)C1CCC(F)(F)CC1`, in data set [1] (from C=CCCc1cc(C)nc(OC)c1CNC(=O)c1cccc(N(CC)C2CCC(F)(F)CC2)c1CC=C, 12-membered ring, Grubbs II (15 mol%), DCM, 32.1 mM, 25.0 °C, 16.0 h), the ring closure, yield after HPLC came out at 62%.
Consider `CCN(c1cccc2c1C/C=C/CCc1cc(C)nc(OC)c1CNC2=O)C1CCOCC1`, for which the ring closure, yield after HPLC in data set [1] (setting [5]) is 58%.
Same read-out and setting: next, `CCN(c1cccc2c1C/C=C\CCc1cc(C)nc(OC)c1CNC2=O)C1CCOCC1`: 23%.
`CCN(c1cccc2c1C/C=C\COc1cc(C)nc(OC)c1CNC2=O)C1CCOCC1` registered a ring closure, isolated yield in data set [2] (from C=CCOc1cc(C)nc(OC)c1CNC(=O)c1cccc(N(CC)C2CCOCC2)c1CC=C, 12-membered ring, Grubbs II (10+10 mol%, then 10 mg), 19.5 mM, 25.0 °C, 132.0 h) of 19%.
`CCN(c1cccc2c1C/C=C\Cc1cc(C)nc(OC)c1CNC2=O)[C@H]1CC[C@H](NC(=O)OC(C)(C)C)CC1`: the ring closure, yield after HPLC in data set [1] (from C=CCCc1cc(C)nc(OC)c1CNC(=O)c1cccc(N(CC)[C@H]2CC[C@H](NC(=O)OC(C)(C)C)CC2)c1CC=C, 11-membered ring, Hoveyda-Grubbs (17.5 mol%), DCE, 16.0 mM, 50.0 °C) worked out at 13.7%.
For the compound `CCN(c1cccc2c1CC=CCCCCc1cc(C)nc(OC)c1CNC2=O)C1CCOCC1`, in data set [2] (from C=CCCCCc1cc(C)nc(OC)c1CNC(=O)c1cccc(N(CC)C2CCOCC2)c1CC=C, 14-membered ring, Grubbs II (10 mol%, then ca. 10 mg), 15.8 mM, 25.0 °C, 22.0 h), the ring closure, isolated yield was found to be 73.1%.
In data set [2] (from C=CCCc1cc(C)nc(OC)c1CNC(=O)c1cccc(N(CC)[C@H]2CC[C@@H](NC(=O)OC(C)(C)C)CC2)c1CC=C, 12-membered ring, Hoveyda-Grubbs II (2 x 20 mol%), 39.8 mM, 55.0 °C, 72.0 h), `CCN(c1cccc2c1CC=CCCc1cc(C)nc(OC)c1CNC2=O)[C@H]1CC[C@@H](NC(=O)OC(C)(C)C)CC1` showed a ring closure, isolated yield of 57.8%.
`CCN(c1cccc2c1CC=CCOCc1cc(C)nc(OC)c1CNC2=O)C1CCOCC1` displayed a ring closure, isolated yield in data set [2] (from C=CCOCc1cc(C)nc(OC)c1CNC(=O)c1cccc(N(CC)C2CCOCC2)c1CC=C, 13-membered ring, Grubbs II (10 mol%), 20.0 mM, 25.0 °C, 22.0 h) of 54.7%.
For `COc1cc(Cl)cc2c1CC=CCCCc1cc(C)nc(OC)c1CNC2=O`, the ring closure, isolated yield in data set [2] (from C=CCCCc1cc(C)nc(OC)c1CNC(=O)c1cc(Cl)cc(OC)c1CC=C, 13-membered ring, Grubbs II (10 mol%), 19.6 mM, 25.0 °C, 16.0 h) was determined as 76%.
With `COc1cc(Cl)cc2c1CC=CCCc1cc(C)nc(OC)c1CNC2=O`, the ring closure, isolated yield in data set [2] (from C=CCCc1cc(C)nc(OC)c1CNC(=O)c1cc(Cl)cc(OC)c1CC=C, 12-membered ring, Grubbs II (10 mol%), 19.4 mM, 25.0 °C, 16.0 h) came out at 69%.
As to `COc1nc(C)cc2c1CNC(=O)c1ccnc(Cl)c1C/C=C/CC2`, in data set [1] (setting [6]), the ring closure, yield after HPLC turned out to be 37.3%.
The same measure, in the same setting: next, `COc1nc(C)cc2c1CNC(=O)c1ccnc(Cl)c1C/C=C\CC2`: 18.3%.
Regarding `CCN(c1cccc2c1C/C=C/CCc1cc(C)[nH]c(=O)c1CNC2=O)[C@H]1CC[C@H](N(C)C)CC1` [Example 37, (E)-10-((trans-4-(dimethylamino)cyclohexyl)(ethyl)amino)-3-methyl-5,6,15,16-tetrahydrobenzo[c]pyrido[4,3-j][1]azacyclododecine-1,14(2H,9H)-dione], the IC50 (as a rule, the point on the concentration scale where inhibition reaches its midpoint) in data set [3] is 126 nM; in data set [4] it was 50 nM.
In the case of `CCN(c1cccc2c1C/C=C/CNCc1cc(C)[nH]c(=O)c1CNC2=O)C1CCOCC1` [Example 38, (E)-11-(ethyl(tetrahydro-2H-pyran-4-yl)amino)-3-methyl-5,6,7,10,16,17-hexahydro-1H-benzo[h]pyrido[4,3-c][1,6]diazacyclotridecine-1,15(2H)-dione], the IC50 in data set [3] came to 158 nM; in data set [4], 100 nM.
The like results for `CCN(c1cccc2c1C/C=C\CNCc1cc(C)[nH]c(=O)c1CNC2=O)C1CCOCC1` [Example 39, (Z)-11-(ethyl(tetrahydro-2H-pyran-4-yl)amino)-3-methyl-5,6,7,10,16,17-hexahydro-1H-benzo[h]pyrido[4,3-c][1,6]diazacyclotridecine-1,15(2H)-dione] were, in that order, 2000 nM and 1260 nM.
The like results for `CCN(c1cccc2c1C/C=C/CCCc1cc(C)[nH]c(=O)c1CNC2=O)C1CCNCC1` [Example 40, (E)-11-(ethyl(piperidin-4-yl)amino)-3-methyl-5,6,7,10,16,17-hexahydro-1H-benzo[c]pyrido[4,3-k][1]azacyclotridecine-1,15(2H)-dione] were, in that order, 100 nM and 32 nM.
Turning to `CCN(c1cccc2c1C/C=C/CCc1cc(C)[nH]c(=O)c1CNC2=O)C1CCN(CC2CC2)CC1` [Example 41, (E)-10-((1-(cyclopropylmethyl)piperidin-4-yl)(ethyl)amino)-3-methyl-5,6,15,16-tetrahydrobenzo[c]pyrido[4,3-j][1]azacyclododecine-1,14(2H,9H)-dione], the IC50 in data set [3] and in data set [4] was 40 nM each time.
For `CCN(c1cccc2c1C/C=C/CCc1cc(C)[nH]c(=O)c1CNC2=O)C1CCN(CCC(F)(F)F)CC1` [Example 43, (E)-10-(ethyl(1-(3,3,3-trifluoropropyl)piperidin-4-yl)amino)-3-methyl-5,6,15,16-tetrahydrobenzo[c]pyrido[4,3-j][1]azacyclododecine-1,14(2H,9H)-dione], the values for the IC50 in data set [3] and in data set [4] were 200 nM and 63 nM, respectively.
`CCN(c1cccc2c1C/C=C/CCc1cc(C)[nH]c(=O)c1CNC2=O)C1CCN(C(CO)CO)CC1` [Example 51, (E)-10-((1-(1,3-dihydroxypropan-2-yl)piperidin-4-yl)(ethyl)amino)-3-methyl-5,6,15,16-tetrahydrobenzo[c]pyrido[4,3-j][1]azacyclododecine-1,14(2H,9H)-dione]: the IC50 is 398 nM in data set [3] and 200 nM in data set [4].
In the same order, the values of `CCN(c1cccc2c1C/C=C\CCc1cc(C)[nH]c(=O)c1CNC2=O)C1CCNCC1` [Example 52, (Z)-10-(ethyl(piperidin-4-yl)amino)-3-methyl-5,6,15,16-tetrahydrobenzo[c]pyrido[4,3-j][1]azacyclododecine-1,14(2H,9H)-dione] are 2000 nM and 631 nM.
The like results for `CCN(c1cccc2c1CC=CCc1cc(C)[nH]c(=O)c1CNC2=O)C1CCNCC1` [Example 54, 9-(ethyl(piperidin-4-yl)amino)-3-methyl-5,8,14,15-tetrahydro-1H-benzo[c]pyrido[4,3-i][1]azacycloundecine-1,13(2H)-dione] were, in that order, 10000 nM and 3980 nM.
In the same order, the values of “(E)-11-(ethyl(1-isopropylpiperidin-4-yl)amino)-3-methyl-5,6,7,10,16,17-hexahydro-1H-benzo[c]pyrido[4,3-k][1]azacyclotridecine-1,15(2H)-dione [Example 42]” are 158 nM and 20 nM.
